Source: patent US6946427B2, “Preservative blends containing iodine containing compounds” (Lonza Inc., priority 2001, dated 2005)
Like-named read-outs stand apart in the source and are kept apart here.

Tested on: S. aureus, P. aeruginosa, and E. coli
Assay: Preservative challenge test in anionic protein shampoo inoculated with mixed bacteria; plate counts and Kull synergism value
Assay type: cell-based

| Compound | S. aureus, P. aeruginosa, and E. coli (cfu/g) Day 0 (anionic protein shampoo, single preservative, printed ">0.5%" by weight, Day 0) | S. aureus, P. aeruginosa, and E. coli (cfu/g) Day 14 (anionic protein shampoo, single preservative, printed ">0.5%" by weight, Day 14) | Qc, concentration of sodium dehydroacetate monohydrate alone required to yield 100% retardation of the bacteria (percent by weight, plate count <10 cfu/g after 14 days) [%] | Qa, concentration of sodium salicylate alone required to yield 100% retardation of the bacteria [%] | S. aureus, P. aeruginosa, and E. coli (cfu/g) Day 0 | S. aureus, P. aeruginosa, and E. coli (cfu/g) Day 14 |
| --- | --- | --- | --- | --- | --- | --- |
| CC(=O)c1c([O-])cc(C)oc1=O.O.[Na+] [Sodium Dehydroacetate Monohydrate, sodium dehydroacetate monohydrate] | 3.0 × 10^6 cfu/g | 4.0 × 10^3 cfu/g | >0.50 |  |  |  |
| O=C([O-])c1ccccc1O.[Na+] [Sodium Salicylate, sodium salicylate] |  |  |  | >1.00 | 3.0 × 10^6 cfu/g | 5.0 × 10^2 cfu/g |
